# Results published in PubChem BioAssay AID1963432 (Molecular Pharmacology Branch, DTP, NCI, 2024).
# pIC50: −log10 of the molar value. Values joined by “and” are separate entries in the source; they are usually repeats but may differ in a detail not shown here. Identical values can stand only once.
# Test system: SYO-1 complex spheroid growth, percent test/control
# Test: Anticancer human tumor SYO-1 cell line growth inhibition [Asc];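 further: compound exposure lasted 7 days after spheroids grew 3 days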;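 on viability, T/C: 100% = DMSO vehicle control viability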
# Conditions: for viability, T/C: stronger effect = lower value
# How it was run: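 Spheroid model: tumor line + HUVEC + hMSC. Single agents and combinations; top conc. at/near clinical Cmax (10 microM if undetermined), half-log dilutions. DMSO stocks at 800-fold test concentration.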
smiles,measurement,setting,value
CCN1CCN(Cc2ccc(Nc3ncc(F)c(-c4cc(F)c5nc(C)n(C(C)C)c5c4)n3)nc2)CC1 + CCN1C(C(=O)NC23CCC(C(=O)O)(CC2)CC3)C(c2cccc(Cl)c2F)C2(C(=O)Nc3cc(Cl)ccc32)C12CCCCC2,pIC50,"curve of first compound, second compound 0.00949 µM",< 6.00
same,pIC50,"curve of first compound, second compound 0.03 µM",< 6.00
same,pIC50,"curve of first compound, second compound 0.0949 µM",6.35
same,pIC50,"curve of first compound, second compound 0.3 µM",> 8.50
same,pIC50,"curve of first compound, second compound 0.949 µM",> 8.50
same,pIC50,"curve of first compound, second compound 3 µM",> 8.50
same,"viability, T/C","second compound 0.00949 µM, first compound 0.00316 µM",105%
same,"viability, T/C","second compound 0.00949 µM, first compound 0.01 µM",105%
same,"viability, T/C","second compound 0.00949 µM, first compound 0.0316 µM",116%
same,"viability, T/C","second compound 0.00949 µM, first compound 0.1 µM",119%
same,"viability, T/C","second compound 0.00949 µM, first compound 0.316 µM",121%
same,"viability, T/C","second compound 0.00949 µM, first compound 1 µM",102%
same,"viability, T/C","second compound 0.03 µM, first compound 0.00316 µM",98.8%
same,"viability, T/C","second compound 0.03 µM, first compound 0.01 µM",101%
same,"viability, T/C","second compound 0.03 µM, first compound 0.0316 µM",98.9%
same,"viability, T/C","second compound 0.03 µM, first compound 0.1 µM",117%
same,"viability, T/C","second compound 0.03 µM, first compound 0.316 µM",106%
same,"viability, T/C","second compound 0.03 µM, first compound 1 µM",73.1%
same,"viability, T/C","second compound 0.0949 µM, first compound 0.00316 µM",87%
same,"viability, T/C","second compound 0.0949 µM, first compound 0.01 µM",85%
same,"viability, T/C","second compound 0.0949 µM, first compound 0.0316 µM",87.5%
same,"viability, T/C","second compound 0.0949 µM, first compound 0.1 µM",88.6%
same,"viability, T/C","second compound 0.0949 µM, first compound 0.316 µM",63%
same,"viability, T/C","second compound 0.0949 µM, first compound 1 µM",19.5%
same,"viability, T/C","second compound 0.3 µM, first compound 0.00316 µM",25.1%
same,"viability, T/C","second compound 0.3 µM, first compound 0.01 µM",20.8%
same,"viability, T/C","second compound 0.3 µM, first compound 0.0316 µM",20.6%
same,"viability, T/C","second compound 0.3 µM, first compound 0.1 µM",16.5%
same,"viability, T/C","second compound 0.3 µM, first compound 0.316 µM",9.85%
same,"viability, T/C","second compound 0.3 µM, first compound 1 µM",2.81%
same,"viability, T/C","second compound 0.949 µM, first compound 0.00316 µM",2.61%
same,"viability, T/C","second compound 0.949 µM, first compound 0.01 µM",2.87%
same,"viability, T/C","second compound 0.949 µM, first compound 0.0316 µM",2.98%
same,"viability, T/C","second compound 0.949 µM, first compound 0.1 µM",4.27%
same,"viability, T/C","second compound 0.949 µM, first compound 0.316 µM",2.21%
same,"viability, T/C","second compound 0.949 µM, first compound 1 µM",1.42%
same,"viability, T/C","second compound 3 µM, first compound 0.00316 µM",2.07%
same,"viability, T/C","second compound 3 µM, first compound 0.01 µM",1.29%
same,"viability, T/C","second compound 3 µM, first compound 0.0316 µM",2.77%
same,"viability, T/C","second compound 3 µM, first compound 0.1 µM",1.88%
same,"viability, T/C","second compound 3 µM, first compound 0.316 µM",3.26%
same,"viability, T/C","second compound 3 µM, first compound 1 µM",2.37%
CCN1C(C(=O)NC23CCC(C(=O)O)(CC2)CC3)C(c2cccc(Cl)c2F)C2(C(=O)Nc3cc(Cl)ccc32)C12CCCCC2 (centres undefined),"viability, T/C",compound 0.00949 µM,103% [middle of 9 runs]
same,"viability, T/C",compound 0.03 µM,99.3% [middle of 9 runs]
same,"viability, T/C",compound 0.3 µM,25.9% [middle of 9 runs]
same,"viability, T/C",compound 0.949 µM,3.45% [middle of 9 runs]
same,"viability, T/C",compound 3 µM,1.23% [middle of 9 runs]
same,IC50,"compound alone, run of 11/07/2022",189 nM [middle of 7 runs]
same,pIC50,curve of compound,6.85 and 6.75
